One assay has as its target T1, topo IIα (Homo sapiens, UniProt P11388).
T1 construct: gene TOP2A
As to the kind of experiment: cell-free relaxation assay of supercoiled pHOT1 plasmid DNA with purified human topo II, agarose gel. The class given is biochemical.

The target in a further assay is T2, topo I (Homo sapiens, UniProt P11387).
T2 construct: gene TOP1
T2 sequence (P11387 2-765): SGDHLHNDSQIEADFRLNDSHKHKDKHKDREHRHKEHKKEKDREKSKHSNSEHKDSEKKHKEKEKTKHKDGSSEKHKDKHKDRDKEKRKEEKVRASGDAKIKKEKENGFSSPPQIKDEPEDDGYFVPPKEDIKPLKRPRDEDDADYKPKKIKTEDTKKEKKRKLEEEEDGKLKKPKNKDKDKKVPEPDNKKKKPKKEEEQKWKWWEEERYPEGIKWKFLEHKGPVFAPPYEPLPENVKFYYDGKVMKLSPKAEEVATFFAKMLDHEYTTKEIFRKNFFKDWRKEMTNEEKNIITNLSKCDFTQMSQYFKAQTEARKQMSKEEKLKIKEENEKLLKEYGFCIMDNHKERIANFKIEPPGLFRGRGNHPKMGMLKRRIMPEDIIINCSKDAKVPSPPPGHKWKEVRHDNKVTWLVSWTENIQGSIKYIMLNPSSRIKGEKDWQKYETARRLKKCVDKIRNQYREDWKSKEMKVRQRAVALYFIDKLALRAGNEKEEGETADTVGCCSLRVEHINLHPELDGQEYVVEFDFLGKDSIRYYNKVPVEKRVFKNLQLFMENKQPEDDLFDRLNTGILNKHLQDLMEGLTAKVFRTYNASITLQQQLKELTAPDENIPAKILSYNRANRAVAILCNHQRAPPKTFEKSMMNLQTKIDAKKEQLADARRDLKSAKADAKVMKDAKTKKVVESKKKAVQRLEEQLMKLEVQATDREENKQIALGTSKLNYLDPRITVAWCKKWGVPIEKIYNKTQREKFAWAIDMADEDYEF
As to the kind of experiment: cell-free relaxation assay of supercoiled pHOT1 plasmid DNA with purified human topo I, agarose gel. The class given is biochemical.

Here are results for 1 compound from publication PMC4446623, “Tackling the Cytotoxic Effect of a Marine Polycyclic Quinone-Type Metabolite: Halenaquinone Induces Molt 4 Cells Apoptosis via Oxidative Stress Combined with the Inhibition of HDAC and Topoisomerase Activities” (Marine Drugs, 2015).

T1 sequence (P11388 whole entry): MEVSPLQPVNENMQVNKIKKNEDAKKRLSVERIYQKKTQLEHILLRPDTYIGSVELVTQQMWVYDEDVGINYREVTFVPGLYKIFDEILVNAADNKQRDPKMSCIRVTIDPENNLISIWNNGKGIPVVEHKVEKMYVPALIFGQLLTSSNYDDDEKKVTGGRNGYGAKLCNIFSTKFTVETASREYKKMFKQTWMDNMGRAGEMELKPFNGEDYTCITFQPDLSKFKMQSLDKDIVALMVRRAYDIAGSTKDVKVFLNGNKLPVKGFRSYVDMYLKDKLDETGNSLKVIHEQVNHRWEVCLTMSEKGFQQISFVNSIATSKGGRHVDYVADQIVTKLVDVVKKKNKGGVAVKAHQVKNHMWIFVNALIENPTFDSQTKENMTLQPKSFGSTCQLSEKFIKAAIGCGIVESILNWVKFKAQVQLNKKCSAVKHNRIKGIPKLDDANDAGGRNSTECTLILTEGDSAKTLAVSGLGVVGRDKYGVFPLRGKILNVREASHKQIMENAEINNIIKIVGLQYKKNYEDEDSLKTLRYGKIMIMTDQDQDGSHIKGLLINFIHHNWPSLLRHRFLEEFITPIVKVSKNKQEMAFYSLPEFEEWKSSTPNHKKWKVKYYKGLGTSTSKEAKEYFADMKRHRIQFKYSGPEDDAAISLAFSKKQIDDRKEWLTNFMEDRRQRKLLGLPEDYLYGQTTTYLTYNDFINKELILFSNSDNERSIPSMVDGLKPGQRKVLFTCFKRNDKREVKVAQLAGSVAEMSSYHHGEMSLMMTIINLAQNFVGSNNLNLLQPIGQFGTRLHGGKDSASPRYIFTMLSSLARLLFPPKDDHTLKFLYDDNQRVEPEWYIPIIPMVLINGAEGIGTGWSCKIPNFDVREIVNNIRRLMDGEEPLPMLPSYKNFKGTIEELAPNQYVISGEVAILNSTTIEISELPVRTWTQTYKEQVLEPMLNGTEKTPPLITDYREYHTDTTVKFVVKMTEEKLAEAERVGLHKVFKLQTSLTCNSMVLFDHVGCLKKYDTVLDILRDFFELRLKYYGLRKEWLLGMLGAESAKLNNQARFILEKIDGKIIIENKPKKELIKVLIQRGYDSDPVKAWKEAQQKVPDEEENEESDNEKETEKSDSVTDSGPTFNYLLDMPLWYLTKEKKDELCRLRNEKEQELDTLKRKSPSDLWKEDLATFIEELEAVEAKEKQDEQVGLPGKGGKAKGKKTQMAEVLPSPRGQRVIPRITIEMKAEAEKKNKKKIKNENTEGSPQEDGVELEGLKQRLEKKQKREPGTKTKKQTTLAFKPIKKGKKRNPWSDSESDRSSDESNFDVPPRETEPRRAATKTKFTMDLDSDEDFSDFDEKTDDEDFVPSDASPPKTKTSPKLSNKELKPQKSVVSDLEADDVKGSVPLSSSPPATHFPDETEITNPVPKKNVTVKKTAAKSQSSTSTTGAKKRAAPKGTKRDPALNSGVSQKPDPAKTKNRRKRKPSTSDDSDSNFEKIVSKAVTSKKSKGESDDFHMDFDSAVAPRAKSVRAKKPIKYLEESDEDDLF

What is called IC50 is the concentration that inhibits the measured activity by half. A low value points to higher potency. With `C[C@@]12CCC(=O)c3coc(c31)C(=O)c1cc3c(cc12)C(=O)C=CC3=O` [HQ, halenaquinone], the IC50 is 0.0166 µM at topo IIα and 3.58 µM against topo I.
